Experimental data published in article PMC3789393, “Purification and Characterization of Phenylalanine Ammonia Lyase from Trichosporon cutaneum” (Enzyme Research, 2013).

System: T1, Trichosporon cutaneum phenylalanine ammonia lyase (TcPAL)
T1 construct: gene PAL; extra bands at 67 and 31 kDa; 79 kDa monomer; PAL typically homotetramer
Assay: continuous spectrophotometric assay of trans-cinnamic acid at […] nm
Format: biochemical, Cutaneotrichosporon cutaneum
Settings: 10 mM Tris-HCl pH 8.0, 30 °C; trial 1 of 3 (the trial quoted in abstract)

SMILES: N[C@@H](Cc1ccccc1)C(=O)O [Phe]
- Km: 5 ± 1.1 mM
